Measurements: patent US20230085307A1, “PYRIDAZINONE COMPOUND AND HERBICIDE” (NISSAN CHEMICAL CORPORATION, priority 2019, published 2023)

How the values were obtained:
[1] = test system: redroot pigweed; experiment: Test Example 5: herbicidal effect by foliage application, plastic box (Table 20, symbol N); assay type: in vivo, redroot pigweed (Amaranthus retroflexus); details: foliage application; for N: redroot pigweed, herbicidal effect grade: 320 g/ha
Text: (§1) [Test Example 5] Herbicidal Effect Test by Foliage Application
(§2) Sterilized diluvial soil was placed in a plastic box having a length of 21 cm, a width of 13 cm, and a depth of 7 cm. The seeds of each of southern crabgrass, green foxtail, barnyard grass, wild oat, blackgrass, Italian ryegrass, windgrass, velvetleaf, redroot pigweed, lambsquarters, chickweed, false cleavers, persian speedwell, corn, soybean, rice, wheat, beet, and rapeseed were sowed in a spot-like manner and covered with the soil having a thickness of about 1.5 cm. Thereafter, the plants were grown in a greenhouse at 25° C. to 30° C. After 14-day growth of the plants, the emulsion agent of the compound of the present invention prepared according to Formulation Example 2 was diluted with water so as to achieve a predetermined herbicide amount, and the diluted emulsion agent was uniformly applied to a foliage part with a small-sized spray. Three weeks after the herbicide application, the effect of the herbicide on each plant was evaluated according to the criteria of Test Example 1.

[2] = test system: wild oat; experiment: Test Example 5: herbicidal effect by foliage application, plastic box (Table 20, symbol I); assay type: in vivo, wild oat (Avena fatua); details: foliage application
How it was run: (§3)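 Sow seeds spot-wise in sterilized diluvial soil; cover with ~1.5 cm soil. Grow 14 days in greenhouse, 25° C. to 30° C. Spray foliage with emulsion diluted to predetermined amount. Rate effect after 3 weeks.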

[3] = test system: Chinese sprangletop; experiment: Test Example 3: herbicidal effect by foliage application, Wagner pot (Table 18, symbol D); assay type: in vivo, chinese sprangletop (Leptochloa chinensis); details: for herbicidal effect on D: Chinese sprangletop: amount of applied herbicide 320 g/ha
How it was run: (§4)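 Plants were sown in alluvial soil held under 0.1–0.5 cm standing water and grown 14 days in a greenhouse at 25–30 °C. An emulsifiable formulation, water-diluted to the set dose, was then sprayed onto the foliage, and effects were scored three weeks later using previously defined criteria.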

[4] = test system: green foxtail; experiment: Test Example 5: herbicidal effect by foliage application, plastic box (Table 20, symbol G); assay type: in vivo, green foxtail (Setaria viridis); details: foliage application; for G: green foxtail, herbicidal effect grade: 320 g/ha
How it was run: as §3

[5] = test system: velvetleaf; experiment: Test Example 5: herbicidal effect by foliage application, plastic box (Table 20, symbol M); assay type: in vivo, velvetleaf (Abutilon theophrasti); details: foliage application; for M: velvetleaf, herbicidal effect grade: 320 g/ha
How it was run: as §3

[6] = test system: chickweed; experiment: Test Example 5: herbicidal effect by foliage application, plastic box (Table 20, symbol P); assay type: in vivo, common chickweed (Stellaria media); details: foliage application
Text: as §1, §2

[7] = test system: persian speedwell; experiment: Test Example 5: herbicidal effect by foliage application, plastic box (Table 20, symbol R); assay type: in vivo, Persian speedwell (Veronica persica); details: foliage application
How it was run: as §3

[8] = test system: southern crabgrass; experiment: Test Example 5: herbicidal effect by foliage application, plastic box (Table 20, symbol F); assay type: in vivo, southern crabgrass (Digitaria ciliaris); details: foliage application; for F: southern crabgrass, herbicidal effect grade: 320 g/ha
How it was run: as §3

[9] = test system: barnyard grass; experiment: Test Example 3: herbicidal effect by foliage application, Wagner pot (Table 18, symbol H); assay type: in vivo, barnyard grass (Echinochloa crus-galli); details: for herbicidal effect on H: barnyard grass: amount of applied herbicide 320 g/ha
How it was run: as §4

[10] = test system: blackgrass; experiment: Test Example 5: herbicidal effect by foliage application, plastic box (Table 20, symbol J); assay type: in vivo, blackgrass (Alopecurus myosuroides); details: foliage application
How it was run: as §3

[11] = test system: barnyard grass; experiment: Test Example 5: herbicidal effect by foliage application, plastic box (Table 20, symbol H); assay type: in vivo, barnyard grass (Echinochloa crus-galli); details: foliage application; for H: barnyard grass, herbicidal effect grade: 320 g/ha
How it was run: as §3

[12] = test system: Italian ryegrass; experiment: Test Example 5: herbicidal effect by foliage application, plastic box (Table 20, symbol K); assay type: in vivo, Italian ryegrass (Lolium multiflorum); details: foliage application
How it was run: as §3

[13] = test system: lambsquarters; experiment: Test Example 5: herbicidal effect by foliage application, plastic box (Table 20, symbol O); assay type: in vivo, lambsquarters (Chenopodium album); details: foliage application; for O: lambsquarters, herbicidal effect grade: 320 g/ha
How it was run: as §3

[14] = test system: rice flat sedge; experiment: Test Example 3: herbicidal effect by foliage application, Wagner pot (Table 18, symbol E); assay type: in vivo, rice flat sedge (Cyperus iria); details: for herbicidal effect on E: rice flat sedge: amount of applied herbicide 320 g/ha
How it was run: as §4

[15] = test system: barnyard grass; experiment: Test Example 4: herbicidal effect by soil treatment (Table 19, symbol H); assay type: in vivo, barnyard grass (Echinochloa crus-galli); details: amount of applied herbicide 320 g/ha
Text: (§5) [Test Example 4] Herbicidal Effect Test by Soil Treatment
as §2, with “Subsequently,” for “Thereafter, the plants were grown in a greenhouse at 25° C. to 30° C. After 14-day growth of the plants,”, “the surface of the soil” for “a foliage part”, “spray. The plastic box was placed in a greenhouse at 25° C. to 30° C. for growth of the plants.” for “spray.”

[16] = test system: southern crabgrass; experiment: Test Example 4: herbicidal effect by soil treatment (Table 19, symbol F); assay type: in vivo, southern crabgrass (Digitaria ciliaris); details: amount of applied herbicide 320 g/ha
Text: as §5
as §2, with “Subsequently,” for “Thereafter, the plants were grown in a greenhouse at 25° C. to 30° C. After 14-day growth of the plants,”, “the surface of the soil” for “a foliage part”, “spray. The plastic box was placed in a greenhouse at 25° C. to 30° C. for growth of the plants.” for “spray.”

[17] = test system: lambsquarters; experiment: Test Example 4: herbicidal effect by soil treatment (Table 19, symbol O); assay type: in vivo, lambsquarters (Chenopodium album); details: amount of applied herbicide 320 g/ha
Text: as §5
as §2, with “Subsequently,” for “Thereafter, the plants were grown in a greenhouse at 25° C. to 30° C. After 14-day growth of the plants,”, “the surface of the soil” for “a foliage part”, “spray. The plastic box was placed in a greenhouse at 25° C. to 30° C. for growth of the plants.” for “spray.”

[18] = test system: redroot pigweed; experiment: Test Example 4: herbicidal effect by soil treatment (Table 19, symbol N); assay type: in vivo, redroot pigweed (Amaranthus retroflexus); details: amount of applied herbicide 320 g/ha
Text: as §5
as §2, with “Subsequently,” for “Thereafter, the plants were grown in a greenhouse at 25° C. to 30° C. After 14-day growth of the plants,”, “the surface of the soil” for “a foliage part”, “spray. The plastic box was placed in a greenhouse at 25° C. to 30° C. for growth of the plants.” for “spray.”

[19] = test system: green foxtail; experiment: Test Example 4: herbicidal effect by soil treatment (Table 19, symbol G); assay type: in vivo, green foxtail (Setaria viridis); details: amount of applied herbicide 320 g/ha
Text: as §5
as §2, with “Subsequently,” for “Thereafter, the plants were grown in a greenhouse at 25° C. to 30° C. After 14-day growth of the plants,”, “the surface of the soil” for “a foliage part”, “spray. The plastic box was placed in a greenhouse at 25° C. to 30° C. for growth of the plants.” for “spray.”

[20] = test system: velvetleaf; experiment: Test Example 4: herbicidal effect by soil treatment (Table 19, symbol M); assay type: in vivo, velvetleaf (Abutilon theophrasti); details: amount of applied herbicide 320 g/ha
Text: as §5
as §2, with “Subsequently,” for “Thereafter, the plants were grown in a greenhouse at 25° C. to 30° C. After 14-day growth of the plants,”, “the surface of the soil” for “a foliage part”, “spray. The plastic box was placed in a greenhouse at 25° C. to 30° C. for growth of the plants.” for “spray.”

[21] = 99 g/ha, three weeks after application
[22] = AAH 320 g/ha, evaluated three weeks after application

| SMILES | herbicidal effect on H: barnyard grass [9] | herbicidal effect on E: rice flat sedge [14] | N: redroot pigweed, herbicidal effect grade ([1]; three weeks after application) | herbicidal effect, H: barnyard grass [15] | herbicidal effect on D: Chinese sprangletop [3] | G: green foxtail, herbicidal effect grade ([4]; three weeks after application) | herbicidal effect, F: southern crabgrass [16] | M: velvetleaf, herbicidal effect grade ([5]; three weeks after application) | herbicidal effect, O: lambsquarters [17] | herbicidal effect, N: redroot pigweed [18] | F: southern crabgrass, herbicidal effect grade ([8]; three weeks after application) | herbicidal effect, G: green foxtail [19] | H: barnyard grass, herbicidal effect grade ([11]; three weeks after application) | herbicidal effect, M: velvetleaf [20] | O: lambsquarters, herbicidal effect grade ([13]; three weeks after application) | further results |
| --- | --- | --- | --- | --- | --- | --- | --- | --- | --- | --- | --- | --- | --- | --- | --- | --- |
| COc1c(C)cccc1-c1sc2ccccc2c1-c1c(O)c(C)nn(C)c1=O [1-067] |  |  |  |  |  |  |  |  |  |  |  |  |  |  |  | herbicidal effect grade, N: redroot pigweed [1, 21]: 1 (Herbicidal rate of 5% or more and less than 20%); herbicidal effect grade, I: wild oat [2, 21]: 0 (Herbicidal rate of 5% or less (almost no effect)); herbicidal effect on D (Chinese sprangletop), rating 0-5 ([3]; 99 g/ha): 0 (Herbicidal rate of 5% or less (almost no effect)); herbicidal effect grade, G: green foxtail [4, 21]: 0 (Herbicidal rate of 5% or less (almost no effect)); herbicidal effect grade, M: velvetleaf [5, 21]: 2 (Herbicidal rate of 20% or more and less than 40%); herbicidal effect grade, P: chickweed [6, 21]: 2 (Herbicidal rate of 20% or more and less than 40%); herbicidal effect grade, R: persian speedwell [7, 21]: 0 (Herbicidal rate of 5% or less (almost no effect)); herbicidal effect grade, F: southern crabgrass [8, 21]: 0 (Herbicidal rate of 5% or less (almost no effect)); herbicidal effect on H (barnyard grass), rating 0-5 ([9]; 99 g/ha): 3 (Herbicidal rate of 40% or more and less than 70%); herbicidal effect grade, J: blackgrass [10, 21]: 0 (Herbicidal rate of 5% or less (almost no effect)); herbicidal effect grade, H: barnyard grass [11, 21]: 0 (Herbicidal rate of 5% or less (almost no effect)); herbicidal effect grade, K: Italian ryegrass [12, 21]: 0 (Herbicidal rate of 5% or less (almost no effect)); herbicidal effect grade, O: lambsquarters [13, 21]: 0 (Herbicidal rate of 5% or less (almost no effect)); herbicidal effect on E (rice flat sedge), rating 0-5 ([14]; 99 g/ha): 0 (Herbicidal rate of 5% or less (almost no effect)) |
| C=CCOc1c(C)nn(C)c(=O)c1-c1c(-c2ccc(OC(F)F)cc2)sc2ccc(F)cc12 [2-300] | 3 (Herbicidal rate of 40% or more and less than 70%) | 3 (Herbicidal rate of 40% or more and less than 70%) |  |  |  |  |  |  |  |  |  |  |  |  |  | N: redroot pigweed, herbicidal effect (criteria 0-5) [1, 22]: 3 (Herbicidal rate of 40% or more and less than 70%); I: wild oat, herbicidal effect (criteria 0-5) [2, 22]: 0 (Herbicidal rate of 5% or less (almost no effect)); G: green foxtail, herbicidal effect (criteria 0-5) [4, 22]: 0 (Herbicidal rate of 5% or less (almost no effect)); M: velvetleaf, herbicidal effect (criteria 0-5) [5, 22]: 1 (Herbicidal rate of 5% or more and less than 20%); P: chickweed, herbicidal effect (criteria 0-5) [6, 22]: 5 (Herbicidal rate of 90% or more (almost completely withered)); R: persian speedwell, herbicidal effect (criteria 0-5) [7, 22]: 5 (Herbicidal rate of 90% or more (almost completely withered)); F: southern crabgrass, herbicidal effect (criteria 0-5) [8, 22]: 0 (Herbicidal rate of 5% or less (almost no effect)); J: blackgrass, herbicidal effect (criteria 0-5) [10, 22]: 0 (Herbicidal rate of 5% or less (almost no effect)); H: barnyard grass, herbicidal effect (criteria 0-5) [11, 22]: 0 (Herbicidal rate of 5% or less (almost no effect)); K: Italian ryegrass, herbicidal effect (criteria 0-5) [12, 22]: 0 (Herbicidal rate of 5% or less (almost no effect)); O: lambsquarters, herbicidal effect (criteria 0-5) [13, 22]: 5 (Herbicidal rate of 90% or more (almost completely withered)) |
| CC(CSc1ccc(-c2sc3ccc(F)cc3c2-c2c(O)c(C)nn(C)c2=O)cc1)=NO [2-452] | 5 (Herbicidal rate of 90% or more (almost completely withered)) | 5 (Herbicidal rate of 90% or more (almost completely withered)) | 5 (Herbicidal rate of 90% or more (almost completely withered)) | 0 (Herbicidal rate of 5% or less (almost no effect)) | 0 (Herbicidal rate of 5% or less (almost no effect)) | 5 (Herbicidal rate of 90% or more (almost completely withered)) | 0 (Herbicidal rate of 5% or less (almost no effect)) | 5 (Herbicidal rate of 90% or more (almost completely withered)) | 4 (Herbicidal rate of 70% or more and less than 90%) | 5 (Herbicidal rate of 90% or more (almost completely withered)) | 3 (Herbicidal rate of 40% or more and less than 70%) | 0 (Herbicidal rate of 5% or less (almost no effect)) | 5 (Herbicidal rate of 90% or more (almost completely withered)) | 0 (Herbicidal rate of 5% or less (almost no effect)) | 5 (Herbicidal rate of 90% or more (almost completely withered)) |  |
| Cc1nn(C)c(=O)c(-c2c(-c3ccc(OC(F)(F)F)cc3)sc3ccc(Cl)cc23)c1O [2-457] | 5 (Herbicidal rate of 90% or more (almost completely withered)) | 5 (Herbicidal rate of 90% or more (almost completely withered)) | 4 (Herbicidal rate of 70% or more and less than 90%) | 0 (Herbicidal rate of 5% or less (almost no effect)) | 3 (Herbicidal rate of 40% or more and less than 70%) | 3 (Herbicidal rate of 40% or more and less than 70%) | 0 (Herbicidal rate of 5% or less (almost no effect)) | 3 (Herbicidal rate of 40% or more and less than 70%) | 2 (Herbicidal rate of 20% or more and less than 40%) | 3 (Herbicidal rate of 40% or more and less than 70%) | 3 (Herbicidal rate of 40% or more and less than 70%) | 0 (Herbicidal rate of 5% or less (almost no effect)) | 5 (Herbicidal rate of 90% or more (almost completely withered)) | 1 (Herbicidal rate of 5% or more and less than 20%) | 5 (Herbicidal rate of 90% or more (almost completely withered)) |  |
